We go through 12 compounds from patent US6723716B1, “7-acylamino-3-heteroarylthio-3-cephem carboxylic acid antibiotics and prodrugs thereof” (Essential Therapeutics, Inc., priority 1999, dated 2004).

≈ marks a conversion by molar mass, not a printed value.

For one series, the system named is S. aureus ATCC29213. Nature of the series: Human serum binding effect: MIC with and without human serum. Type of series: cell-based, Staphylococcus aureus. The conditions noted are these: 1:1 human serum:MHB. The gist of the method:
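Serum binding was estimated as the ratio of S. aureus ATCC29213 MIC in 1:1 human serum:Mueller-Hinton broth to MIC without serum. Compounds were serially 2-fold diluted, and wells received an early-log-phase inoculum at 1×10^6 CFU/mL final. Inoculum size was checked by colony counts on TSA after overnight incubation at 35 °C.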

Another series deals with rhesus serum proteins. Nature of the series: Serum binding determination by ultrafiltration/HPLC. In kind it is in vitro ADME. The conditions noted are these: by HPLC.
Another series has as its system rat serum proteins. The description is as above. Type of series: in vitro ADME. The conditions noted are these: by HPLC.
Series [1] has as its system S. aureus Col8A (Meth^S)(lac^−). The experiment in a line: Broth microdilution MIC (NCCLS). In kind it is cell-based. The following applies: Staphylococcus aureus. The procedure, abridged: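 Overnight MHB cultures (20 h, 35° C, shaking) → staphylococci diluted 1:10, grown 1 h, diluted 1:1000; enterococci diluted 1:333 (E. faecium) or 1:666 (E. faecalis) from overnight → 2-fold compound dilutions in MHB, 5×10^5 CFU/mL final → 24 h, 35° C → OD650 + visual; MIC = no growth.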

Consider `NCCSCc1nc(N)sc1SC1=C(C(=O)O)N2C(=O)[C@@H](NC(=O)/C(=N\O)c3nc(N)sc3Cl)[C@H]2SC1` [Cmpd 3, (7R)-7-[(Z)-2-(2-amino-5-chlorothiazol-4-yl)-2-(hydroxyimino)acetamido]-3-[4-(2-aminoethylthiomethyl)-2-amino-1,3-thiazol-5-ylthio]-3-cephem-4-carboxylic acid], for which the “Human serum binding effect (ratio of MIC value determined with and without human serum added)” value in the series on S. aureus ATCC29213 was found to be 4. The “Serum Binding rhesus (% of compound bound to serum)” value with rhesus serum proteins was determined as 93%. For the same compound, the “Serum Binding rat (% of compound bound to serum)” value in the series on rat serum proteins came out at 56%.

On to `NCCSCc1nc(SCCN)sc1SC1=C(C(=O)O)N2C(=O)[C@@H](NC(=O)/C(=N\O)c3nc(N)sc3Cl)[C@H]2SC1` [Cmpd 11, (7R)-7-[(Z)-2-(2-amino-5-chlorothiazol-4-yl)-2-(hydroxyimino)acetamido]-3-[4-(2-aminoethylthiomethyl)-2-aminoethylthio-1,3-thiazol-5-ylthio]-3-cephem-4-carboxylic acid], for which, in the series on S. aureus ATCC29213, the “Human serum binding effect (ratio of MIC value determined with and without human serum added)” value came to 4.

As to `NCCSCc1ncccc1SC1=C(C(=O)O)N2C(=O)[C@@H](NC(=O)/C(=N\O)c3nc(N)sc3Cl)[C@H]2SC1` [Cmpd 13, (7R)-7-[(Z)-2-(2-amino-5-chlorothiazol-4-yl)-2-(hydroxyimino)acetamido]-3-[2-(2-aminoethylthiomethyl)pyrid-3-ylthio]-3-cephem-4-carboxylic acid], in the series on S. aureus ATCC29213, the “Human serum binding effect (ratio of MIC value determined with and without human serum added)” value turned out to be 2. For the same compound, in the series with rat serum proteins, the “Serum Binding rat (% of compound bound to serum)” value was found to be 85%.

For the compound `N=C(N)NCCSCc1ncccc1SC1=C(C(=O)O)N2C(=O)[C@@H](NC(=O)/C(=N\O)c3nsc(N)n3)[C@H]2SC1` [Cmpd 14, (7R)-7-[(Z)-2-(5-amino-1,2,4-thiadiazol-3-yl)-2-(hydroxyimino)acetamido]-3-[2-(2-guanidinoethylthiomethyl)pyrid-3-ylthio]-3-cephem-4-carboxylic acid], the “Human serum binding effect (ratio of MIC value determined with and without human serum added)” value with S. aureus ATCC29213 amounted to 2.

For `NCCSCc1ncccc1SC1=C(C(=O)O)N2C(=O)[C@@H](NC(=O)/C(=N\O)c3nsc(N)n3)[C@H]2SC1` [Cmpd 17, (7R)-7-[(Z)-2-(5-amino-1,2,4-thiadiazol-3-yl)-2-(hydroxyimino)acetamido]-3-[2-(2-aminoethylthiomethyl)pyrid-3-ylthio]-3-cephem-4-carboxylic acid], in the series with S. aureus ATCC29213, the “Human serum binding effect (ratio of MIC value determined with and without human serum added)” value turned out to be 2. Also, in the series with rhesus serum proteins, the “Serum Binding rhesus (% of compound bound to serum)” value is given as 81%. The “Serum Binding rat (% of compound bound to serum)” value with rat serum proteins was found to be 74%.

As to `NCCSCc1cnccc1SC1=C(C(=O)O)N2C(=O)[C@@H](NC(=O)/C(=N\O)c3nsc(N)n3)[C@H]2SC1` [Cmpd 18, (7R)-7-[(Z)-2-(5-amino-1,2,4-thiadiazol-3-yl)-2-(hydroxyimino)acetamido]-3-[3-(2-aminoethylthiomethyl)pyrid-4-ylthio]-3-cephem-4-carboxylic acid], in the series with S. aureus ATCC29213, the “Human serum binding effect (ratio of MIC value determined with and without human serum added)” value was 2. The “Serum Binding rhesus (% of compound bound to serum)” value with rhesus serum proteins is 67%. Further, the “Serum Binding rat (% of compound bound to serum)” value in the series on rat serum proteins was 55%.

As for `NCCSCc1cnccc1SC1=C(C(=O)O)N2C(=O)C(NC(=O)/C(=N\O)c3csc(N)n3)C2SC1` (centres unmarked) [Cmpd 19], in the series with S. aureus ATCC29213, the “Human serum binding effect (ratio of MIC value determined with and without human serum added)” value amounted to 2. The “Serum Binding rhesus (% of compound bound to serum)” value with rhesus serum proteins is reported as 83%. Also, the “Serum Binding rat (% of compound bound to serum)” value in the series on rat serum proteins was 76%.

`NCCSCc1cnccc1SC1=C(C(=O)O)N2C(=O)[C@@H](NC(=O)/C(=N\O)c3nc(N)sc3Cl)[C@H]2SC1` [Cmpd 20, (7R)-7-[(Z)-2-(2-amino-5-chlorothiazol-4-yl)-2-(hydroxyimino)acetamido]-3-[3-(2-aminoethylthiomethyl)pyrid-4-ylthio]-3-cephem-4-carboxylic acid]: the “Human serum binding effect (ratio of MIC value determined with and without human serum added)” value in the series on S. aureus ATCC29213 is 3. Also, the “Serum Binding rhesus (% of compound bound to serum)” value in the series with rhesus serum proteins is on record as 77%. For the same compound, the “Serum Binding rat (% of compound bound to serum)” value in the series with rat serum proteins came to 71%.

For the compound `NCCSCc1ccncc1SC1=C(C(=O)O)N2C(=O)[C@@H](NC(=O)/C(=N\O)c3nc(N)sc3Cl)[C@H]2SC1` [Cmpd 21, (7R)-7-[(Z)-2-(2-amino-5-chlorothiazol-4-yl)-2-(hydroxyimino)acetamido]-3-[4-(2-aminoethylthiomethyl)pyrid-3-ylthio]-3-cephem-4-carboxylic acid], the “Human serum binding effect (ratio of MIC value determined with and without human serum added)” value in the series with S. aureus ATCC29213 is 2. Further, the “Serum Binding rhesus (% of compound bound to serum)” value with rhesus serum proteins was determined as 97%. Besides, the “Serum Binding rat (% of compound bound to serum)” value in the series with rat serum proteins worked out at 97%.

In the case of `NCCSCc1ncsc1SC1=C(C(=O)O)N2C(=O)[C@@H](NC(=O)/C(=N\O)c3cccc(N)n3)[C@H]2SC1` [Cmpd 23, (7R)-7-[(Z)-2-(2-aminopyrid-6-yl)-2-(hydroxyimino)acetamido]-3-[4-(2-aminoethylthiomethyl)-1,3-thiazol-5-ylthio]-3-cephem-4-carboxylic acid], the “Serum Binding rhesus (% of compound bound to serum)” value in the series on rhesus serum proteins amounted to 93%. Further, the “Serum Binding rat (% of compound bound to serum)” value in the series with rat serum proteins stood at 77%.

One may read the MIC as the lowest concentration that inhibits growth of the organism. A higher MIC goes with a need for much substance. With `NCCSCc1cnccc1SC1=C(C(=O)O)N2C(=O)[C@@H](NC(=O)/C(=N\O)c3cccc(N)n3)[C@H]2SC1` [Cmpd 24, (7R)-7-[(Z)-2-(2-aminopyrid-6-yl)-2-(hydroxyimino)acetamido]-3-[3-(2-aminoethylthiomethyl)pyrid-4-ylthio]-3-cephem-4-carboxylic acid], the “Serum Binding rat (% of compound bound to serum)” value with rat serum proteins is on record as 52%. In series [1], this compound gave an MIC of 0.5 µg/mL (≈ 0.89 µM).

Take `N=C(N)NCCSCc1cnccc1SC1=C(C(=O)O)N2C(=O)[C@@H](NC(=O)/C(=N\O)c3nsc(N)n3)[C@H]2SC1` [Cmpd 25, (7R)-7-[(Z)-2-(5-amino-1,2,4-thiadiazol-3-yl)-2-(hydroxyimino)acetamido]-3-[3-(2-guanidinoethylthiomethyl)pyrid-4-ylthio]-3-cephem-4-carboxylic acid]: the “Human serum binding effect (ratio of MIC value determined with and without human serum added)” value in the series on S. aureus ATCC29213 was 1. Further, the “Serum Binding rhesus (% of compound bound to serum)” value with rhesus serum proteins turned out to be 55%. For the same compound, the “Serum Binding rat (% of compound bound to serum)” value in the series with rat serum proteins was 35%.
